“Also recorded” adds a separate entry of the source.
Key:
HIF-1a = HIF-1a expression by Western blot in HEC1a/EMP2 cells treated with kinase inhibitors in a hypoxic chamber; assay type: cell-based, human; settings: 24 hrs, 1.0% hypoxic chamber
Procedure: To determine if EMP2 expression altered VEGF expression and secretion, cells were placed in a hypoxic chamber for 24 hours. EMP2 expression directly correlated with VEGF protein levels (FIG. 4B) as well as with secreted protein (FIG. 4C). […] Western blot analysis was carried out by Cells were lysed in Laemmli buffer. Proteins were separated by SDS-PAGE, transferred to a nitrocellulose membrane (Amersham Biosciences), and stained with Ponceau S (Sigma-Aldrich, St. Louis, Mo.) to determine transfer efficiency. Membranes were blocked with 10% low fat milk in PBS containing 0.1% Tween 20 and probed with EMP2 antisera (1:1000), anti-VEGF (Santa Cruz Biotech), antiHIF-1a (1:800; BD Biosciences), anti-PPAR-y (Santa Cruz Biotech), anti-p-Src (Cell Signaling, Danvers). Protein bands were visualized using a horseradish peroxidase (HRP)-labeled secondary antibody (BD Biosciences) followed by chemiluminescence (ECL; Amersham Biosciences). Band intensities were quantified using the NIH program Image J as above. To account for loading variability β-actin was used to normalize each sample. At least three independent experiments were performed and, where indicated, the results were evaluated for statistical significance using a Student's t-test (unpaired, one-tail). A level of P<0.05 was considered to be statistically significant.
In some experiments, inhibitors were added to determine the contribution of specific pathways to HIF-1a expression. HEC1a/EMP2 cells were treated with 10 μM of the kinase inhibitor Ly294002 (Cell Signaling), the EGFR inhibitor Erlotinib e; 10 μM, Genentech), or the Src family tyrosine kinase inhibitor Dasatinib e; 10 μM, Bristol-Myers Squibb). Efficacy of the inhibitors was tested at the manufacturer's recommended dosage, and potential toxicity was measured using trypan-blue exclusion. Samples were harvested and probed by SDS-PAGE/Western blot analysis as above […]
Using common inhibitors of AKT, PI3-kinase, EGFR, and Src tyrosine kinases, HEC1a/EMP2 cells were treated with these agents while in a hypoxic chamber.

[1] = system: human aortic endothelial cell (HAEC); assay: Boyden chamber migration of HAEC towards cultured tumor cell supernatants; assay type: cell-based; settings: added at 10μg/ml to the cultured tumor cell supernatant
Procedure: FIG. 4 depicts that EMP2 regulates VEGF expression. (A) A Boyden chamber assay was used to determine human aortic endothelial cell (HAEC) response to cultured tumor cell supernatants. In some experiments, the antiVEGF antibody Avastin® which binds soluble VEGF was added at 10μg/ml to the cultured supernatant. (B) The expression of total VEGF was measured using Western blot analysis. EMP2 expression was visualized to verify modulation of EMP2 in the cell lines; β-Actin was used as the loading control. (C) Secreted VEGF was measured using an ELISA. (D) Semi-quantitative expression of VEGF mRNA was determined using RTPCR. The experiment was repeated three times with similar results, and a representative blot is shown. GAPDH expression serves as a loading control. (E) Left, To determine the mechanism for VEGF regulation, HIF-1 a and PP ARy expression was determined using Western blot analysis. β-Actin expression serves as the loading control. Right, Quantization of HIF-1a expression relative to β-Actin for three independent experiments. The data represents the mean±SEM. […] Appropriate vehicle control cells are included. Western blot analysis was used to show the expression of EMP2, HIF-1a, and β-Actin in these cells.
Human umbilical vein endothelial cells (HUVEC) from passage 2 were purchased from BD Biosciences (San Diego, Calif.) and used between passages 3 and 7 for all experiments. […]

HUVEC = settings: supernatants of HEC1a/RIBO or HEC1a/shRNA 911; 20 or 50 µg/ml
Excerpt: Migration assays. […] The experiment was repeated three times.

| Compound | EMP2-induced HIF-1a expression (HIF-1a) | other results |
| --- | --- | --- |
| O=c1[nH]c2ccccc2n1C1CCN(Cc2ccc(-c3nc4cc5[nH]cnc5cc4nc3-c3ccccc3)cc2)CC1 [AKTi, Akt inhibitor VIII] | did not alter HIF-1a expression | EMP2-induced HIF-1a expression (HIF-1a; listed as AKT inhibitors): did not suppress |
| CC(C)(C)n1nc(-c2ccc(Cl)cc2)c2c(N)ncnc21 [PP2] | reversed |  |
| C#Cc1cccc(Nc2ncnc3cc(OCCOC)c(OCCOC)cc23)c1 [erlotinib, Erlotinib] | produced a similar effect; also recorded: sufficient to inhibit its expression |  |
| Bevacizumab |  | HAEC migration [1]: reduced HAEC migration to control levels |
| VEGF |  | HUVEC cell tube formation (HUVEC): sufficient to induce HUVEC cell tube formation |
